Measured values as given in patent publication US11578087B2, “Oxaborole esters and uses thereof” (priority 2016, dated 2023).
Read-outs that look alike come from different tables or passages of the source.

How the values were obtained:
[1] = system: T. cruzi amastigote (Td Tomato-modified) in Vero cells; assay: In vitro IC50 measurement of T. cruzi amastigote killing using Td Tomato-modified T. cruzi; type: cell-based; details: Trypanosoma cruzi, 72 h, fluorescence, read-out: IC50: I Org. amastigote Growth T. cruzi 3 d
Method: Example 254. In Vitro IC50 Measurement of T. cruzi Amastigote Killing Using Td Tomato-Modified T. cruzi
The T. cruzi parasites used in this assay were genetically modified to express Td Tomato fluorescent protein. Vero cells (African green monkey kidney epithelial cells) were harvested from continuous cultures using trypsin and added to the inner 60 wells of 96-well Greiner Bio One plates (plate catalog #655090) at 200 ul/well of […]. Cells were allowed to adhere for 1 h before infection with T. cruzi. T. cruzi for infection were harvested from previously-infected Vero cells, washed, pelleted and resuspended at 5×10^6/mL. 50 uL of parasites were added to each well containing Vero cells. Compounds were prepared from 5 mM stock concentrations in DMSO to final concentrations in wells ranging from 5 uM to 5 nM. Wells were provided for negative controls, lacking compounds. Plates were placed into a 37° C. incubator for 20 min, then a “Day 0” reading was taken on a Synergy H4 plate reader to record initial fluorescence levels, at 544 (excitation) and 612 nm (emission). 96-well plates were placed in Tupperware containers with wet paper towels and incubated at 37° C. incubator for 72 h. After 72 h plates were reread (Day 3 reading) and data analyzed using Excel and/or Graphpad software. Day 0 fluorescence was subtracted from Day 3 to remove input parasite fluorescence. Growth curves are generated and 50% and 90% inhibitory concentrations are determined by nonlinear regression analysis.

[2] = system: IL3000 T. congolense (drug sensitive) strain; assay: In vitro Alamar Blue 72 h drug sensitivity assay for T. congolense; type: cell-based, Trypanosoma congolense; details: bloodstream form, 69 h + 3 h Resazurin, 34° C., read-out: IC50: I Org. Growth T. congolense 3 d
Method: Example 252. In Vitro Alamar Blue 72 h Drug Sensitivity Assay for T. congolense
Compounds were tested in vitro for chemotherapeutic potency against the IL3000 T. congolense (drug sensitive) strain, using the Alamar Blue assay with several modifications. Test compounds were prepared as 10 mg/mL DMSO stocks for each assay run. Compounds were assayed in at least three separate, independent test runs and an 11-point dilution curve was used to determine the IC50 values. Bloodstream form trypanosomes were supported in HMI media containing 20% bovine serum and were incubated with test compounds for 69 h at 34° C. in a humidified atmosphere containing 5% CO2. Thereafter, 10 μL of Resazurin dye (12.5 mg in 100 mL of phosphate buffered saline, Sigma-Aldrich, Buchs, Switzerland) were added for an additional 3 h. Plates were then read using a fluorescent plate reader (Spectramax, Gemini XS, Bucher Biotec, Basel, Switzerland) using an excitation wavelength of 536 nm and an emission wavelength of 588 nm. Data points were averaged to generate sigmoidal dose-response curves and IC50 values were determined using Softmax Pro 5.2 software.

Row | SMILES | IC50 [1] [nM] | IC50 ([2]; Trypanosoma congolense, 72 h) [nM] | further results
1 | CC(C)[C@H](NC(=O)c1ccc2c(c1)B(O)OC2)C(=O)OCc1ccc(F)c(F)c1 [Example 6-185, 3,4-difluorobenzyl (1-hydroxy-1,3-dihydrobenzo[c][1,2]oxaborole-6-carbonyl)-L-valinate] | 21 to 999 | – | –
2 | Cc1cccc(C)c1OC(=O)[C@H](C)NC(=O)c1ccc2c(c1)B(O)OC2 [Example 6-001, 2,6-Dimethylphenyl (1-hydroxy-1,3-dihydrobenzo[c][1,2]oxaborole-6-carbonyl)-L-alaninate] | – | 10 to 5000 | –
3 | Cc1c(C(=O)N[C@H](C(=O)OC[C@H](O)CO)C(C)C)ccc2c1B(O)OC2 [Example 6-147, (R)-2,3-dihydroxypropyl (1-hydroxy-7-methyl-1,3-dihydrobenzo[c][1,2]oxaborole-6-carbonyl)-L-valinate] | ≥ 1000 | – | –
4 | COC(=O)[C@H](CCCc1ccccc1)NC(=O)c1ccc2c(c1)B(O)OC2 [Example 6-028, Methyl (S)-2-(1-hydroxy-1,3-dihydrobenzo[c][1,2]oxaborole-6-carboxamido)-5-phenylpentanoate] | – | 10 to 5000 | –
5 | Cc1c(C(=O)N[C@H](C(=O)OCC2CCCC2)C(C)C)ccc2c1B(O)OC2 [Example 6-115, Cyclopentylmethyl (1-hydroxy-7-methyl-1,3-dihydrobenzo[c][1,2]oxaborole-6-carbonyl)-L-valinate] | ≤ 20 | – | –
6 | C[C@H](NC(=O)c1ccc2c(c1)B(O)OC2)C(=O)OC(C)(C)c1ccccc1 [Example 6-015, 2-Phenylpropan-2-yl (1-hydroxy-1,3-dihydrobenzo[c][1,2]oxaborole-6-carbonyl)-L-alaninate] | – | 10 to 5000 | –
7 | Cc1c(C(=O)N[C@H](C(=O)OCC(C)C)C(C)C)ccc2c1B(O)OC2 [Example 6-116, Isobutyl (1-hydroxy-7-methyl-1,3-dihydrobenzo[c][1,2]oxaborole-6-carbonyl)-L-valinate] | ≤ 20 | – | –
8 | COC(=O)[C@H](CC1CC1)NC(=O)c1ccc2c(c1)B(O)OC2 [Example 6-184, Methyl (S)-3-cyclopropyl-2-(1-hydroxy-1,3-dihydrobenzo[c][1,2]oxaborole-6-carboxamido)propanoate] | – | 10 to 5000 | –
9 | CC(C)[C@H](NC(=O)c1ccc2c(c1)B(O)OC2(C)C)C(=O)OCc1ccc(F)cc1F [Example 6-034, 2,4-Difluorobenzyl (1-hydroxy-3,3-dimethyl-1,3-dihydrobenzo[c][1,2]oxaborole-6-carbonyl)-L-valinate] | – | 10 to 5000 | –
10 | Cc1c(C(=O)N[C@H](C(=O)OCc2cccc(N3CCNCC3)n2)C(C)C)ccc2c1B(O)OC2 [Example 6-213, (6-(piperazin-1-yl)pyridin-2-yl)methyl (1-hydroxy-7-methyl-1,3-dihydrobenzo[c][1,2]oxaborole-6-carbonyl)-L-valinate] | ≥ 1000 | – | –
11 | Cc1c(C(=O)N[C@H](C(=O)OCc2ccc([S+]([O-])C(C)C)cc2)C(C)C)ccc2c1B(O)OC2 (stereo partly drawn) [Example 6-089, 4-(Isopropylsulfinyl)benzyl (1-hydroxy-7-methyl-1,3-dihydrobenzo[c][1,2]oxaborole-6-carbonyl)-L-valinate] | 21 to 999 | – | –
12 | O=C(OCc1ccccc1)[C@@H]1CCCN1C(=O)c1ccc2c(c1)B(O)OC2 [Example 6-012, Benzyl (1-hydroxy-1,3-dihydrobenzo[c][1,2]oxaborole-6-carbonyl)-L-prolinate] | – | 10 to 5000 | –
13 | Cc1c(C(=O)N[C@H](C(=O)OCc2cncc(N3CCNCC3)n2)C(C)C)ccc2c1B(O)OC2 [Example 6-205, (6-(piperazin-1-yl)pyrazin-2-yl)methyl (1-hydroxy-7-methyl-1,3-dihydrobenzo[c][1,2]oxaborole-6-carbonyl)-L-valinate] | ≥ 1000 | – | –
14 | Cc1c(C(=O)N[C@H](C(=O)OCc2cccnc2)C(C)C)ccc2c1B(O)OC2 [Example 6-187, Pyridin-3-ylmethyl (1-hydroxy-7-methyl-1,3-dihydrobenzo[c][1,2]oxaborole-6-carbonyl)-L-valinate] | ≤ 20 | – | –
15 | NC(=O)CC[C@H](NC(=O)c1ccc2c(c1)B(O)OC2)C(=O)OCc1ccccc1 [Example 6-011, Benzyl (1-hydroxy-1,3-dihydrobenzo[c][1,2]oxaborole-6-carbonyl)-L-glutaminate] | – | 10 to 5000 | –
16 | Cc1c(C(=O)N[C@H](C(=O)OCC2CCC(F)(F)CC2)C(C)(C)O)ccc2c1B(O)OC2 [Example 6-248, (4,4-difluorocyclohexyl)methyl (S)-3-hydroxy-2-(1-hydroxy-7-methyl-1,3-dihydrobenzo[c][1,2]oxaborole-6-carboxamido)-3-methylbutanoate] | 21 to 999 | – | –
17 | COC(=O)[C@H](Cc1ccccc1)NC(=O)c1ccc2c(c1)B(O)OC2 [Example 6-181, Methyl (1-hydroxy-1,3-dihydrobenzo[c][1,2]oxaborole-6-carbonyl)-L-phenylalaninate] | – | – | IC50 [2]: 10 to 5000 nM
18 | C[C@@H](NC(=O)c1ccc2c(c1)B(O)OC2)C(=O)OCc1ccccc1 [Example 6-175, Benzyl (1-hydroxy-1,3-dihydrobenzo[c][1,2]oxaborole-6-carbonyl)-D-alaninate] | – | 10 to 5000 | –
19 | Cc1c(C(=O)N[C@H](C(=O)OCc2ccc3ncccc3c2)C(C)C)ccc2c1B(O)OC2 [Example 6-127, Quinolin-6-ylmethyl (1-hydroxy-7-methyl-1,3-dihydrobenzo[c][1,2]oxaborole-6-carbonyl)-L-valinate] | 21 to 999 | – | –
20 | COc1c(C(=O)N[C@H](C(=O)OCc2ccccc2)C(C)C)ccc2c1B(O)OC2 [Example 6-194, Benzyl (1-hydroxy-7-methoxy-1,3-dihydrobenzo[c][1,2]oxaborole-6-carbonyl)-L-valinate] | 21 to 999 | – | –
21 | Cc1c(C(=O)N[C@H](C(=O)OCCN2CCN(C)CC2)C(C)C)ccc2c1B(O)OC2 [Example 6-096, 2-(4-Methylpiperazin-1-yl)ethyl (1-hydroxy-7-methyl-1,3-dihydrobenzo[c][1,2]oxaborole-6-carbonyl)-L-valinate] | ≥ 1000 | – | –
22 | Cc1c(C(=O)N[C@H](C(=O)OCc2ccc(OCCN3CCCC3)cc2)C(C)C)ccc2c1B(O)OC2 [Example 6-163, 4-(2-(Pyrrolidin-1-yl)ethoxy)benzyl (1-hydroxy-7-methyl-1,3-dihydrobenzo[c][1,2]oxaborole-6-carbonyl)-L-valinate] | – | < 0.5 | –
23 | COC(=O)[C@@H](CCCc1ccccc1)NC(=O)c1ccc2c(c1)B(O)OC2 [Example 6-029, Methyl (R)-2-(1-hydroxy-1,3-dihydrobenzo[c][1,2]oxaborole-6-carboxamido)-5-phenylpentanoate] | – | 10 to 5000 | –
24 | Cc1c(C(=O)N[C@H](C(=O)OC2COCCOC2)C(C)C)ccc2c1B(O)OC2 [Example 6-162, 1,4-dioxepan-6-yl (1-hydroxy-7-methyl-1,3-dihydrobenzo[c][1,2]oxaborole-6-carbonyl)-L-valinate] | – | 0.51 to 9.99 | –
25 | COC(=O)[C@@H](NC(=O)c1ccc2c(c1)B(O)OC2)C(C)C [Example 6-179, Methyl (1-hydroxy-1,3-dihydrobenzo[c][1,2]oxaborole-6-carbonyl)-L-valinate] | – | 10 to 5000 | –
26 | CC(C)[C@H](NC(=O)c1ccc2c(c1F)B(O)OC2)C(=O)OCc1ccc(F)cc1F [Example 6-037, 2,4-Difluorobenzyl (7-fluoro-1-hydroxy-1,3-dihydrobenzo[c][1,2]oxaborole-6-carbonyl)-L-valinate] | – | 10 to 5000 | –
27 | O=C(CNC(=O)c1ccc2c(c1)B(O)OC2)OCc1ccccc1 [Example 6-004, Benzyl (1-hydroxy-1,3-dihydrobenzo[c][1,2]oxaborole-6-carbonyl)glycinate] | – | 10 to 5000 | –
28 | Cc1cccc(C)c1COC(=O)[C@H](C)NC(=O)c1ccc2c(c1)B(O)OC2 [Example 6-014, 2,6-Dimethylbenzyl (1-hydroxy-1,3-dihydrobenzo[c][1,2]oxaborole-6-carbonyl)-L-alaninate] | – | 10 to 5000 | –
29 | COC(=O)[C@H](Cc1c[nH]c2ccccc12)NC(=O)c1ccc2c(c1)B(O)OC2 [Example 6-183, Methyl (1-hydroxy-1,3-dihydrobenzo[c][1,2]oxaborole-6-carbonyl)-L-tryptophanate] | – | 10 to 5000 | –
30 | CC(C)(NC(=O)c1ccc2c(c1)B(O)OC2)C(=O)OCc1ccccc1 [Example 6-013, Benzyl 2-(1-hydroxy-1,3-dihydrobenzo[c][1,2]oxaborole-6-carboxamido)-2-methylpropanoate] | – | 10 to 5000 | –
